Measurements: the NIST ThermoML archive (doi:10.1016/j.tca.2014.05.028)
Numbers after ± are expanded uncertainties.

Assays:
[1] = for mass density: 101 kPa, Liquid, Vibrating tube method; for Triple point temperature: DTA
[2] = Molar enthalpy of transition or fusion; conditions: DSC

Compound | mass density ([1]; 298.15 K) | mass density ([1]; 303.15 K) | mass density ([1]; 308.15 K) | mass density ([1]; 313.15 K) | mass density ([1]; 318.15 K) | mass density ([1]; 323.15 K) | mass density ([1]; 328.15 K) | mass density ([1]; 333.15 K) | mass density ([1]; 338.15 K) | mass density ([1]; 343.15 K) | Triple point temperature ([1]; Crystal 1) | Triple point temperature ([1]; Crystal 2) | Molar enthalpy of transition or fusion ([2]; Crystal 1) | Molar enthalpy of transition or fusion ([2]; Crystal 2) | Triple point temperature ([1]; Crystal) | Molar enthalpy of transition or fusion ([2]; Crystal)
CCC[N+]1(C)CCCC1.[Br-] [1-methyl-1-propylpyrrolidinium bromide] | 1259.96 ± 1.4 kg/m3 | 1255.92 ± 1.4 kg/m3 | 1251.9 ± 1.4 kg/m3 | 1247.91 ± 1.4 kg/m3 | 1243.94 ± 1.4 kg/m3 | 1240 ± 1.4 kg/m3 | 1236.08 ± 1.4 kg/m3 | 1232.19 ± 1.4 kg/m3 | 1228.32 ± 1.3 kg/m3 | 1224.48 ± 1.3 kg/m3 | 476.68 ± 0.41 K | 465.12 ± 0.41 K | 2.59 ± 0.0908 kcal/mol | 0.698 ± 0.0478 kcal/mol | – | –
CCCC[N+]1(C)CCCC1.[Br-] [1-butyl-1-methylpyrrolidinium bromide] | 1221.19 ± 2.9 kg/m3 | 1217.27 ± 2.9 kg/m3 | 1213.38 ± 2.8 kg/m3 | 1209.51 ± 2.8 kg/m3 | 1205.66 ± 2.8 kg/m3 | 1201.84 ± 2.8 kg/m3 | 1198.05 ± 2.8 kg/m3 | 1194.28 ± 2.8 kg/m3 | 1190.53 ± 2.7 kg/m3 | 1186.8 ± 2.7 kg/m3 | – | – | – | – | 487.67 ± 0.41 K | 3.14 ± 0.108 kcal/mol
CCCCC[N+]1(C)CCCC1.[Br-] [1-methyl-1-pentylpyrrolidinium bromide] | 1188.96 ± 0.4 kg/m3 | 1185.14 ± 0.4 kg/m3 | 1181.35 ± 0.4 kg/m3 | 1177.58 ± 0.4 kg/m3 | 1173.84 ± 0.39 kg/m3 | 1170.12 ± 0.39 kg/m3 | 1166.42 ± 0.39 kg/m3 | 1162.75 ± 0.39 kg/m3 | 1159.1 ± 0.38 kg/m3 | 1155.48 ± 0.38 kg/m3 | 431.55 ± 0.41 K | 326.85 ± 0.41 K | 2.14 ± 0.0789 kcal/mol | 0.466 ± 0.0382 kcal/mol | – | –
